Experimental data published in patent publication US12643867B2, “Compositions and uses thereof” (University of Virginia Patent Foundation, priority 2017, dated 2026).

How the values were obtained:
Type in all cases: cell-based
[1] = system: recombinant DGK isoforms (total of 10); assay: JWB003 labeling in live cells (in situ); conditions: live HEK293T cells
Method: (§1) • 1. HEK293T cells were harvested in cold PBS. • a. Cells were transferred to Eppendorf tube. • 2. Cells were lysed via tip sonicator. • 3. Cells were fractionated into membrane and soluble fraction. • a. 100,000×G for 45 minutes at 4 degree. • b. Supernatant was separated from cell pellet. • 4. Dilute proteomes to 1 mg/mL in PBS and aliquot appropriate reaction volume (49 μL for probe only; 48 μL for competition+probe) • 5. Cells were treated with 50× inhibitor. • a. Incubated for 1Hr at 37 degree. • 6. Cells were treated with 50× Probe (JWB003). • a. Incubated for 1Hr at 37 degree. • 7. Add 6 μL of master mix to each alkyne probe-labeled sample. • a. 1 μL of 1.25 mM Rh-N3 • b. 1 μL of fresh 50 mM TCEP • c. 3 μL of 1.7 mM TBTA stock • d. 1 μL of 50 mM CuSO4 • 8. Vortex samples. • 9. Incubate at room temperature for 1 hr • 10. Quench with 17 μL of 4×SDS-PAGE loading buffer+βME and vortex tubes. • 11. Analyze 30 μL samples by SDS-PAGE immediately. [B] Labeling HEK293T Cells to Determine Target Proteins of JWB003 in Live Cells (In Situ) • 1. Complete media was removed from HEK293T cells and replaced with serum free media containing JWB003 at the appropriate final concentration • a. Cells were placed in incubator for appropriate time at 37 degree 5% CO2 • 2. Cells were washed • a. 2× warm PBS • b. 2× cold PBS • c. Harvest cells in cold PBS • 3. Cells were transferred to Eppendorf tube • 4. […]

[2] = target: T1, recombinant hDGKa (Homo sapiens, UniProt P23743); assay: JWB003 labeling in live cells (in situ); conditions: 25 μM; transfected HEK293T cells
T1 construct: expressed in transfected cells; host or cells: HEK293T
T1 sequence (P23743 whole entry): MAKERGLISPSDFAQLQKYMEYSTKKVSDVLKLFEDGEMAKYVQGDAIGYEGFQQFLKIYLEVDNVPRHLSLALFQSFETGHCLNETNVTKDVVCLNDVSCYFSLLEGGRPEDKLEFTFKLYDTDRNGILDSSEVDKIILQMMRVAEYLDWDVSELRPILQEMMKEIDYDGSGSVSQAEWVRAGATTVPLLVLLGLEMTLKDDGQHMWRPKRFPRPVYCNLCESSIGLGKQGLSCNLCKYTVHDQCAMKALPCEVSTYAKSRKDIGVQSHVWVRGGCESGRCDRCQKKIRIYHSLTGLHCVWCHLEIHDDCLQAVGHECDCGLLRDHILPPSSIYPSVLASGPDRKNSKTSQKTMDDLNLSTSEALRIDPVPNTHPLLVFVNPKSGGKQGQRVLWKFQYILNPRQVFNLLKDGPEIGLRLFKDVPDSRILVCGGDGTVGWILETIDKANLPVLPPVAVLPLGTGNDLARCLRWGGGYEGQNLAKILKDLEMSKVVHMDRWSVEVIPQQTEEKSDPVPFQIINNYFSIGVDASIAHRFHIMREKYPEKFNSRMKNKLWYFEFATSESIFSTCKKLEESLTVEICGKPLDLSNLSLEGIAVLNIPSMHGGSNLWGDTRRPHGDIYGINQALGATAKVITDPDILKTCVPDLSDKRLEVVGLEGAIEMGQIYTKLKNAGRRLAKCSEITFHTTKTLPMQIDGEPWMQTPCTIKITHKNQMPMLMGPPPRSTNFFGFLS
Method: as §1

[3] = target: T2, human PKCa (hPKCa) (Homo sapiens, UniProt P17252); assay: JWB003 labeling of C1 domain protein kinases; conditions: transfected HEK293T cells
T2 construct: expressed in transfected cells; host or cells: HEK293T
Method: as §1

[4] = system: A549 cells; assay: WST-1 Cell Proliferation Assay; conditions: ritanserin, ketanserin 5-50 μM; staurosporine 1 μM
Method: (§2) WST-1 Cell Proliferation Assays. Tumor cells were plated in transparent tissue-culture treated 96-well plates at a density of 100,000 cells/mL (A549, H1650) or 200,000 cells/mL (H82) in a volume of 100 μL per well. Cells were treated with dimethyl sulfoxide (DMSO) vehicle or inhibitors dissolved in DMSO at the indicated concentrations (final DMSO concentration of 0.5%). Cells were allowed to grow for indicated times at 37° C. under 5% CO2. Afterwards, equal parts of WST-1 developer reagent and electron mediator solution were mixed and 10 μL of the resulting solution (‘WST-1 reagent’) were added to each well. Plates were shaken in an orbital shaker for 60 s and then returned to the incubator for two hrs. Plates were again shaken followed measurement of absorbance at 450 nm. Data were normalized to DMSO-treated wells and significance values determined with one-way ANOVA.

[5] = system: H1650 cells; assay: WST-1 Cell Proliferation Assay; conditions: ritanserin, ketanserin 5-50 μM; staurosporine 1 μM
Method: as §2

[6] = system: H82 cells; assay: WST-1 Cell Proliferation Assay; conditions: ritanserin, ketanserin 5-50 μM; staurosporine 1 μM
Method: as §2

[7] = system: Bone Marrow Derived Macrophages (BMDMs), noncancerous primary cells; assay: WST-1 Cell Proliferation Assay; conditions: ritanserin highest concentration tested 50 μM; staurosporine 1 μM

SMILES	labeling of recombinant DGK isoforms [1]	time at which probe labeling of hDGKa saturates [2]	labeling of hPKCa [3]	cell viability (WST-1), words [4]	cell viability (WST-1), words [5]	cell viability (WST-1), words [6]	cell killing of noncancerous primary cells (WST-1), words [7]
C#CCCC(=O)NCCN1CCN(C/C=C/C(=O)N2CCC(=C(c3ccc(F)cc3)c3ccc(F)cc3)CC2)CC1 [JWB003]	effective labeling of all ten proteins in live cells	60 min	labeling of hPKCa in the membrane but not soluble fraction	–	–	–	–
CN[C@@H]1C[C@H]2O[C@@](C)([C@@H]1OC)n1c3ccccc3c3c4c(c5c6ccccc6n2c5c31)C(=O)NC4 [Staurosporine]	–	–	–	general cytotoxicity across all cells tested	general cytotoxicity across all cells tested	general cytotoxicity across all cells tested	general cytotoxicity across all cells tested
